20 compounds from ChEMBL document CHEMBL3627700, “Discovery of novel N-aryl piperazine CXCR4 antagonists” (Bioorg Med Chem Lett, 2015) can be followed below.

A short description of series [1]: Cytotoxicity against human Chem1 cells. The class given is cell-based. As to conditions: read-out: TC50 (the source's name).
Series [2] has as its system Human immunodeficiency virus 1. Description: Antiviral activity against HIV1 3B assessed as inhibition of viral attachment to human MAGI cells. Type of series: functional, organism-based. As to conditions: Human immunodeficiency virus 1, 3B.
The target in series [3] is T1, C-X-C chemokine receptor type 4 (Homo sapiens, UniProt P61073). Description: Antagonist activity at CXCR4 in human Chem-1 cells assessed as inhibition of CXCL12-induced calcium flux. Type of series: functional, cell-based. In general terms: Calcium assays in cells follow changes in intracellular calcium, usually with a dye or a luminescent sensor.
T1 sequence (P61073 whole entry): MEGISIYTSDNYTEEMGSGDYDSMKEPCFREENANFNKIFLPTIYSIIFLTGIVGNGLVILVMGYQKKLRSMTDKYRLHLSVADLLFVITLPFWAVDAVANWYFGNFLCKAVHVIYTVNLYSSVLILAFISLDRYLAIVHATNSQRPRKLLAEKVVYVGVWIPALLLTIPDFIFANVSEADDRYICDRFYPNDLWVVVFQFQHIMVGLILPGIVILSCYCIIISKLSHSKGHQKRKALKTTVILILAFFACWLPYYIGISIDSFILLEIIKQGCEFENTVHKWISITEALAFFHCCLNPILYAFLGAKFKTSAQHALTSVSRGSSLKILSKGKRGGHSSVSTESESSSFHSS
Series [4] can be described thus: Cytotoxicity against human MAGI cells. Type of series: cell-based. As to conditions: read-out: TC50 (the source's name).
For series [5], the target named is T1, C-X-C chemokine receptor type 4.
Description: Displacement of [125I]-SDF-1 from CXCR4 (unknown origin)
Series [6] concerns the target T2, hERG (KCNH2) (Homo sapiens, UniProt Q12809). Kind of series: Displacement of [3H]-dofetilide from human ERG in HEK293 cells at 1 uM. The conditions noted are these: HEK293 cells that express hERG, probe [3H]-dofetilide. Type of series: cell-based. For orientation: Displacement assays read how much labelled ligand stays bound in the presence of the test substance.

The test system of series [7] is Human immunodeficiency virus 1. Description: Antiviral activity against HIV1 3B infected in PBMC. Type of series: functional, organism-based. As to conditions: Human immunodeficiency virus 1, 3B.
Series [8] can be described thus: Selectivity ratio of IC50 for CXCR4 in human Chem-1 cells to IC50 for HIV1 3B assessed as inhibition of viral attachment to human MAGI cells. The class given is cell-based.
The target of a further series is CYP3A4 (Homo sapiens, UniProt P08684). Description: Inhibition of human CYP3A4 at 1 uM.
Chain of CYP3A4 (P08684 whole entry): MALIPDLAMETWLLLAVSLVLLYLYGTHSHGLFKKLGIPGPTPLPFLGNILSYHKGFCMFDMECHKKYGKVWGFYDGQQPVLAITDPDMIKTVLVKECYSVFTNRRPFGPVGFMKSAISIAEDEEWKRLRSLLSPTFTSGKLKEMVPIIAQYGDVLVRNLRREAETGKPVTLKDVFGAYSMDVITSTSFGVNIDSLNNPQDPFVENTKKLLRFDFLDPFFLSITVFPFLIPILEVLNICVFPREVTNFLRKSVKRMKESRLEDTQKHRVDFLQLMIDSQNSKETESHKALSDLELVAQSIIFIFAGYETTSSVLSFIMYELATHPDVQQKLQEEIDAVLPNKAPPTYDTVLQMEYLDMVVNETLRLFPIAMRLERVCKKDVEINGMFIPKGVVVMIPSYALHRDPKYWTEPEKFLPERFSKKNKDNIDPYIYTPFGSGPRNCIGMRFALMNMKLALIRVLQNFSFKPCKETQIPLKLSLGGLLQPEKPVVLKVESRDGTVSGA
Series [9] deals with T2, hERG (KCNH2). Kind of series: Displacement of [3H]-dofetilide from human ERG in HEK293 cells at 10 uM. The class given is cell-based. As to conditions: HEK293 cells that express hERG, probe [3H]-dofetilide.
A further series has as its target CYP2C19 (Homo sapiens, UniProt P33261). Kind of series: Inhibition of human CYP2C19 at 1 uM. The class given is ADME.
Another series concerns the target CYP2D6 (Homo sapiens, UniProt P10635). Kind of series: Inhibition of human CYP2D6 at 1 uM.

Each structure is given as a SMILES string. Where only a bound is given, the exact number is not on record here.

Chain of CYP2D6 (P10635 whole entry): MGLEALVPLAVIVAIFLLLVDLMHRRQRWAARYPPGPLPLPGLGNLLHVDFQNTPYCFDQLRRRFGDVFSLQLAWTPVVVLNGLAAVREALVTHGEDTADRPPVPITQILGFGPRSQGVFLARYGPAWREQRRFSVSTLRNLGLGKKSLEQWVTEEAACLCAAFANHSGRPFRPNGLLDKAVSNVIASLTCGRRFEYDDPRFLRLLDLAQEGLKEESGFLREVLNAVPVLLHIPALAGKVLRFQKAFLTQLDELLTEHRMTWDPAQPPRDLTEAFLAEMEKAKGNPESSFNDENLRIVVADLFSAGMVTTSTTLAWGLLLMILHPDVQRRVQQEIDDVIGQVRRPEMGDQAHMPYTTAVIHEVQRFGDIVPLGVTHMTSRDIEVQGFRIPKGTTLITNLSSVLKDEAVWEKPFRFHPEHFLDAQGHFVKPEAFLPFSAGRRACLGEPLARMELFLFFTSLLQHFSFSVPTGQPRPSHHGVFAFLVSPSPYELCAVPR
T2 sequence (Q12809 whole entry): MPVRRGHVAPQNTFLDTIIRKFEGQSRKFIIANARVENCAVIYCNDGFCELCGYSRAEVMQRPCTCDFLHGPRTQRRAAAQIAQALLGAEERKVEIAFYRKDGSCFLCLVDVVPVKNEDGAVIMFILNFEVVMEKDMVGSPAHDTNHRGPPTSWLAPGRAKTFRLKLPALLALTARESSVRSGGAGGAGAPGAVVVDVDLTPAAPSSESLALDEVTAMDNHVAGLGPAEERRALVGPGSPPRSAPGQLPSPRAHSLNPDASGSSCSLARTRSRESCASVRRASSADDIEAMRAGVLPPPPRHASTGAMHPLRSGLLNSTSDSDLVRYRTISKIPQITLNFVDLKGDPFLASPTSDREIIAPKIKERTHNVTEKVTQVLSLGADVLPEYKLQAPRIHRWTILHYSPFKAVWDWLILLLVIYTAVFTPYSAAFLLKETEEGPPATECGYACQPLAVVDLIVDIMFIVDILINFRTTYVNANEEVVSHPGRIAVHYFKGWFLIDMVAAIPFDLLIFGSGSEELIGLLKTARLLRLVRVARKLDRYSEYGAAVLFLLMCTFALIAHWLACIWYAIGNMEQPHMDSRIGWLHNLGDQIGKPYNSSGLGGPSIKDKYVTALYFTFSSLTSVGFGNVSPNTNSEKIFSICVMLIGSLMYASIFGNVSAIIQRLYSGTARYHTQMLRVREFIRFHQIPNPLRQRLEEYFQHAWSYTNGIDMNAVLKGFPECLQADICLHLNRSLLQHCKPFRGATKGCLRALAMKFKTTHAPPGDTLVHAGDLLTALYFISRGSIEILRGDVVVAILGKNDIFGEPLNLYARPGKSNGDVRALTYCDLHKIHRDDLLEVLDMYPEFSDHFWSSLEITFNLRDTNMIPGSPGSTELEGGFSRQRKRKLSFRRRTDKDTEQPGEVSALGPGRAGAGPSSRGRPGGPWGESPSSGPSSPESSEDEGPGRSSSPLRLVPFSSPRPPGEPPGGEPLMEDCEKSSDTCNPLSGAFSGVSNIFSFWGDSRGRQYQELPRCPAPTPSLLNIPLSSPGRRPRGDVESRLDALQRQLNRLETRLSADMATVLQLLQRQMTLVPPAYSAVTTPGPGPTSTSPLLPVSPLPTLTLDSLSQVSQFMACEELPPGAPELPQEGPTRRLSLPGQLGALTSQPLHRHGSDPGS
Chain of CYP2C19 (P33261 whole entry): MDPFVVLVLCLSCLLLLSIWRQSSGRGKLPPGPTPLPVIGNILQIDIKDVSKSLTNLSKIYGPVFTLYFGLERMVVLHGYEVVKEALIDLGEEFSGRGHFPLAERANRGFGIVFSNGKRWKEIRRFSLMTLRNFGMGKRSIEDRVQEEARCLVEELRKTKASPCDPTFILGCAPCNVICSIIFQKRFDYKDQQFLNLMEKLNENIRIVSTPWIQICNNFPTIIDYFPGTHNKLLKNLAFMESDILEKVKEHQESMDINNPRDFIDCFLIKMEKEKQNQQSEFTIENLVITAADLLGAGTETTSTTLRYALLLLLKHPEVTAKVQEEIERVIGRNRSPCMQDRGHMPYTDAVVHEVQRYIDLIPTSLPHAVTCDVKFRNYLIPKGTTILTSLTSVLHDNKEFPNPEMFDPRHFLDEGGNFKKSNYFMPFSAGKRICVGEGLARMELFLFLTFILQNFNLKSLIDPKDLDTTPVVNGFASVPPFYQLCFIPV

Regarding `NCCCCN(C[C@H]1CNCCN1)[C@H]1CCCc2cccnc21`, the CC50 in [1] and in series [4] was over 10 µM each time. In addition, the IC50 (commonly the concentration needed to halve the response being measured) in series [2] turned out to be 310 nM; in series [3], 255 nM.

For the compound `NCCCCN(C[C@@H]1CNCCN1)[C@H]1CCCc2cccnc21`, the CC50 in series [1] and in series [4] was over 10 µM throughout. Further, the IC50 in series [2] turned out to be 1100 nM; in [3], 1200 nM.

For `NCCCCN(C[C@H]1CN(Cc2ccccc2)CCN1)[C@H]1CCCc2cccnc21`, the CC50 in [1] and in [4] was over 10 µM each time. The IC50 in series [3] amounted to 230 nM.

As to `NCCCCN(C[C@@H]1CN(Cc2ccccc2)CCN1)[C@H]1CCCc2cccnc21`, the CC50 in series [1] and in series [4] was over 10 µM throughout. In addition, the results for the IC50 in series [5] and in series [3] were 2920 nM and 190 nM, respectively.

As for `NCCCCN(C[C@H]1CN(C(=O)c2ccccc2)CCN1)[C@H]1CCCc2cccnc21`, the CC50 in series [1] and in series [4] was over 10 µM throughout. The IC50 in [2] was determined as 60 nM; in series [3], 2 nM.

Consider `NCCCCN(C[C@@H]1CN(C(=O)c2ccccc2)CCN1)[C@H]1CCCc2cccnc21`, for which the CC50 in series [1] and in series [4] was over 10 µM in each case. Also, the inhibition (as a rule, the percentage by which the read-out fell short of the control) at 1 µM is 18% on hERG (KCNH2) [6], 0% at CYP3A4, 2% against CYP2C19 and 19% at CYP2D6. Also, the values for the IC50 in series [7], in series [2] and in [3] were 88 nM, 20 nM and 6 nM, respectively. Also, the “Ratio IC50” value in [8] was 0.3. Also, on hERG (KCNH2) [9], the inhibition at 10 µM came out at 55%.

As to `NCCCCN(C[C@H]1CNCCN1C(=O)c1ccccc1)[C@H]1CCCc2cccnc21`, the CC50 in series [1] and in series [4] was over 10 µM in each case. Moreover, the IC50 in series [2] is over 100000 nM.

Turning to `NCCCCN(C[C@@H]1CNCCN1C(=O)c1ccccc1)[C@H]1CCCc2cccnc21`, the CC50 in series [1] and in series [4] was over 10 µM throughout. In addition, the IC50 in series [2] is over 100000 nM.

With `NCCCCN(C[C@@H]1CN(C(=O)c2ccco2)CCN1)[C@H]1CCCc2cccnc21`, the CC50 in series [1] and in series [4] was over 10 µM each time. Besides, the IC50 came to 150 nM in series [2] and 35 nM in series [3].

As for `NCCCCN(C[C@H]1CN(C(=O)OCc2ccccc2)CCN1)[C@H]1CCCc2cccnc21`, the CC50 in series [1] and in [4] was over 10 µM in each case. For the same compound, the IC50 in series [2] was 340 nM; in series [3], 18 nM.

As for `NCCCCN(C[C@@H]1CN(C(=O)OCc2ccccc2)CCN1)[C@H]1CCCc2cccnc21`, the CC50 in series [1] and in series [4] was over 10 µM each time. For the same compound, in series [2], the IC50 came to 1350 nM.

On to `NCCCCN(C[C@H]1CN(S(=O)(=O)c2ccccc2)CCN1)[C@H]1CCCc2cccnc21`, for which the CC50 in [1] and in [4] was over 10 µM each time. Also, the IC50 in [3] was 2 nM.

As for `NCCCCN(C[C@@H]1CN(S(=O)(=O)c2ccccc2)CCN1)[C@H]1CCCc2cccnc21`, the CC50 in series [1] and in series [4] was over 10 µM in each case. Moreover, the inhibition at 1 µM on hERG (KCNH2) [6] amounted to 37%; on CYP3A4, 0%; at CYP2C19, 2%; at CYP2D6, 41%. Moreover, the inhibition at 10 µM on hERG (KCNH2) [9] was found to be 79%. Besides, in series [3], the IC50 amounted to 23 nM.

Turning to `NCCCCN(C[C@H]1CN(S(=O)(=O)c2ccc3ccccc3c2)CCN1)[C@H]1CCCc2cccnc21`, the CC50 in series [1] and in series [4] was over 10 µM in each case. Besides, the figures for the IC50 in series [2] and in [3] were 4600 nM and 71 nM, respectively.

For `NCCCCN(C[C@H]1CN(S(=O)(=O)c2cc3ccccc3s2)CCN1)[C@H]1CCCc2cccnc21`, the CC50 in series [1] and in series [4] was over 10 µM each time. The results for the IC50 in [2] and in [3] were 3440 nM and 39 nM, respectively.

In the case of `NCCCCN(C[C@H]1CN(S(=O)(=O)c2ccc(Cl)cc2)CCN1)[C@H]1CCCc2cccnc21`, the CC50 in [1] and in series [4] was over 10 µM each time. The IC50 was determined as 50 nM in series [2] and 2 nM in series [3].

For `NCCCCN(C[C@H]1CN(C(=O)Nc2ccccc2)CCN1)[C@H]1CCCc2cccnc21`, the CC50 in series [1] and in series [4] was over 10 µM each time. Besides, the IC50 in series [2] was 350 nM.

In the case of `NCCCCN(CC1CN(c2ccccc2)CCN1)[C@H]1CCCc2cccnc21` (mixture of isomers), the CC50 in [1] and in [4] was over 10 µM in each case. Further, the half-maximal inhibitory concentration (IC50) came out at 720 nM in series [2] and 130 nM in series [3].

As to `NCCCCN(CC1CN(C(=O)c2ccco2)CCN1)[C@H]1CCCc2cccnc21` (mixture of isomers), the CC50 in series [1] and in series [4] was over 10 µM each time. Besides, the IC50 in series [2] came out at 210 nM.

With `NCCCCN(Cc1nc2ccccc2[nH]1)[C@H]1CCCc2cccnc21` [MAVORIXAFOR], the inhibition at 1 µM against CYP2C19 was found to be 20%; on CYP2D6, 100%.
